Data reported in paper PMC6261607, “Novel high–throughput myofibroblast assays identify agonists with therapeutic potential in pulmonary fibrosis that act via EP2 and EP4 receptors” (PLoS ONE, 2018).

These compounds were tested on normal human lung fibroblasts (NHLF) (assay: Nuclear count in the HCA, standard assay). Conditions: Homo sapiens, Fibroblast, 48 h, standard HCA, NHLF, 5 ng/ml TGF–β1, 48 h; read-out: Nuclear count IC50.
Type: cell-based
In short: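 NHLF starved 24 h in serum-free basal medium with 0.1% BSA, then given compounds together with 5 ng/ml TGF-β1 for 48 h (0.6% DMSO). Methanol-fixed cells imaged for DAPI, α-SMA and FN; an SVM trained on ±TGF-β1 controls classified each cell, giving per-well % myofibroblast differentiation and nuclear counts.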
For CCCCC[C@H](O)/C=C/[C@H]1[C@H](O)CC(=O)[C@@H]1CCCCCCC(=O)O [Alprostadil], the IC50 was > 25 µM.
C[C@]12CC[C@H](O)C[C@H]1CC[C@@H]1[C@@H]2C[C@@H](O)[C@]2(C)[C@@H](C3=CC(=O)OC3)CC[C@]12O [Digoxigenin] was tested, and the IC50 was > 25 µM.
In the case of Cc1cccc(-c2[nH]c(CNc3ccccc3F)nc2-c2ccc3ncnn3c2)n1 [EW–7197], the IC50 is reported as > 25 µM.
With CC(C)(C)c1ccc(CN(Cc2cccc(OCC(=O)O)c2)S(=O)(=O)c2cccnc2)cc1 [Evatanepag] the IC50 was > 50 µM.
For O=C(CC1NCCCC1O)Cn1cnc2cc(Br)c(Cl)cc2c1=O (stereo not drawn) [Halofuginone], the IC50 was > 46 µM.
For COC(=O)c1ccc2c(c1)NC(=O)/C2=C(\Nc1ccc(N(C)C(=O)CN2CCN(C)CC2)cc1)c1ccccc1 [Nintedanib], the IC50 was 1.4 µM.
For CCCCC[C@H](O)/C=C/[C@H]1[C@H](O)CC(=O)[C@@H]1C/C=C\CCCC(=O)O [PGE2, prostaglandin E2], the IC50 was > 2.5 µM.

Same assay, conditions: standard HCA, NHLF, 5 ng/ml TGF–β1, 48 h; read-out: Nuclear count IC50
CCCCC[C@H](O)/C=C/[C@H]1[C@H](O)CC(=O)[C@@H]1CCCCCCC(=O)O [Alprostadil] was tested, and the IC50 was > 50 µM.
For C[C@]12CC[C@H](O)C[C@H]1CC[C@@H]1[C@@H]2C[C@@H](O)[C@]2(C)[C@@H](C3=CC(=O)OC3)CC[C@]12O [Digoxigenin], the IC50 was 19 µM.

What follows are compounds tested on COL1 protein in TGF–β1–induced NHLF myofibroblasts (assay: MS/MS COL1, NHLF myofibroblast reversal assay). Conditions: Homo sapiens, Col1; NHLF pre–stimulated 24 h with 5 ng/ml TGF–β1; representative experiment, S7 Fig E; read-out: IC50, reversal of COL1 (curve of a single experiment).
Type: cell-based, human
Description: (§1) Cell culture medium was removed and cells were lysed on ice by adding 5 μl / well of pre–cooled protein extraction buffer containing 10 mM Tris–HCl (pH 8.0), 6 M urea and 2 M thiourea and shaking on ice on a plate shaker at 600 rpm for 30 min.
(§2) Cell lysate was transferred to a 96–well polypropylene–PCR–plate. 15 μl / well denaturation buffer (6 M urea, 50 mM ammonium bicarbonate) and 2 μl / well of 50 mM TCEP were added and samples were denatured for 1 h at 60°C using the Veriti 96–well Fast Thermal Cycler System (Applied Biosystem) with a heated lid. Plates were allowed to cool to RT. Subsequently, 2 μl of 100 mM iodoacetamide were added per well to derivatize cysteine residues. Plates were then sealed and vortexed for 2 min in the dark and incubated for 30 min at 37°C in a thermal cycler with a heated lid. 90 μl of 50 mM ammonium bicarbonate pH 7.8 were added, followed by the addition of 10 μl of trypsin at 0.02 μg / ml. Samples were trypsin–digested overnight at 37°C in a thermal cycler with heated lid. […] Samples were desalted under vacuum using an Oasis HLB 96–well (30 μm particle size, 5 mg sorbent / well) reverse phase cartridge according to the manufacturer’s instructions and eluted with 170 μl of 90% acetonitrile, 0.1% formic acid. Samples were dried down with a flow of nitrogen at 40°C, left to cool to RT and re–suspended in 40 μl 5% acetonitrile, 0.1% formic acid on a plate shaker set to 1400 rpm for 5 min. Plates were centrifuged at 4,000 rpm for 10 min and 2 times 12 μl / well of supernatant were transferred into separate 96–well plates (Greiner Bio–One), sealed and stored at 4°C until analyzed by MS / MS.
(§3) Surrogate tryptic peptides were chosen for detection of COL1 (COL1A1), α–SMA (ACTA) and tubulin (TBA1A1) and crude synthetic peptides were purchased from Thermo Fischer. After several rounds of optimization following standard workflows, […] (COL1 / COL1A1), […] (α–SMA / ACTA) and […] LC–MS / MS analysis was performed on a RapidFire™ RF360 system (Agilent Technologies) coupled to an API 5500 (ABSciex) with positive ion electrospray ionization. […] Detection was performed using multiple reaction monitoring (MRM) mode to monitor parent⟶product ion transitions (m / z). […] The source parameters were curtain gas (CUR) nitrogen: 20 psig; collision gas (CAD): 7 psig; ion source gas 1: 50.0 psig; ion source gas 2: 50.0 psig; ion spray voltage (IS): 5500 V; turbo heater temperature (TEM): 600°C; entrance potential (EP): 10V. Peak areas for COL1A1 and ACTA were normalized by dividing by TBA1A peak area.
(§4) To identify compounds with potential to revert differentiated myofibroblasts to fibroblasts the assay procedures were modified. After 24 h starvation, NHLF cells were stimulated with 5 ng / ml TGF–β1 for 24 h. At t = 24 h TGF–β1 was removed and either vehicle (DMSO) or compounds were added and incubated with the cells for a further 72 h.
With CCCCC[C@H](O)/C=C/[C@H]1[C@H](O)CC(=O)[C@@H]1CCCCCCC(=O)O [Alprostadil] the IC50 was 0.002 µM.
Cc1cccc(-c2[nH]c(CNc3ccccc3F)nc2-c2ccc3ncnn3c2)n1 [EW–7197] showed an IC50 of 0.103 µM.
Compound O=C(CC1NCCCC1O)Cn1cnc2cc(Br)c(Cl)cc2c1=O (stereo not drawn) [Halofuginone] has an IC50 of 0.059 µM.

Same assay, conditions: Homo sapiens, Col1; reversal assay: 24 h 5 ng/ml TGF–β1, washed, 72 h compound; normalized to tubulin; read-out: MS / MS COL1 IC50
In the case of CCCCC[C@H](O)/C=C/[C@H]1[C@H](O)CC(=O)[C@@H]1CCCCCCC(=O)O [Alprostadil], the IC50 is reported as 0.0015 ± 0.0007 µM.
For C[C@]12CC[C@H](O)C[C@H]1CC[C@@H]1[C@@H]2C[C@@H](O)[C@]2(C)[C@@H](C3=CC(=O)OC3)CC[C@]12O [Digoxigenin], the IC50 was 0.054 µM.
Cc1cccc(-c2[nH]c(CNc3ccccc3F)nc2-c2ccc3ncnn3c2)n1 [EW–7197] gave an IC50 of 0.082 ± 0.03 µM.
CC(C)(C)c1ccc(CN(Cc2cccc(OCC(=O)O)c2)S(=O)(=O)c2cccnc2)cc1 [Evatanepag] gave an IC50 of 0.024 µM.
O=C(CC1NCCCC1O)Cn1cnc2cc(Br)c(Cl)cc2c1=O (stereo not drawn) [Halofuginone] showed an IC50 of 0.116 ± 0.081 µM.
Compound COC(=O)c1ccc2c(c1)NC(=O)/C2=C(\Nc1ccc(N(C)C(=O)CN2CCN(C)CC2)cc1)c1ccccc1 [Nintedanib] has an IC50 of 0.626 µM.
CCCCC[C@H](O)/C=C/[C@H]1[C@H](O)CC(=O)[C@@H]1C/C=C\CCCC(=O)O [PGE2, prostaglandin E2] gave an IC50 of 0.0004 µM.

The compounds below were run on α–SMA protein in NHLF cells (assay: RapidFire MS/MS quantification of α–SMA (IPQA), standard assay). Conditions: Homo sapiens; NHLF, 5 ng/ml TGF–β1, 48 h; representative experiment of supplementary figure; read-out: IC50 on α–SMA (curve of a single experiment).
Type: cell-based, human
Description: as §1, §2, §3
CCCCC[C@H](O)/C=C/[C@H]1[C@H](O)CC(=O)[C@@H]1CCCCCCC(=O)O [Alprostadil] showed an IC50 of 0.0006 µM.
CC(C)(C)c1ccc(CN(Cc2cccc(OCC(=O)O)c2)S(=O)(=O)c2cccnc2)cc1 [Evatanepag] showed an IC50 of 0.0055 µM.
O=C(CC1NCCCC1O)Cn1cnc2cc(Br)c(Cl)cc2c1=O (stereo not drawn) [Halofuginone] was tested, and the IC50 was 0.024 µM.
CCCCC[C@H](O)/C=C/[C@H]1[C@H](O)CC(=O)[C@@H]1C/C=C\CCCC(=O)O [PGE2, prostaglandin E2] gave an IC50 of 0.0003 µM.

Same assay, conditions: Homo sapiens; NHLF, 5 ng/ml TGF–β1, lysed 48 h after TGF–β1, normalized to tubulin; mean ± SD; read-out: MS / MS α–SMA IC50
CCCCC[C@H](O)/C=C/[C@H]1[C@H](O)CC(=O)[C@@H]1CCCCCCC(=O)O [Alprostadil] gave an IC50 of 0.0019 ± 0.0016 µM.
C[C@]12CC[C@H](O)C[C@H]1CC[C@@H]1[C@@H]2C[C@@H](O)[C@]2(C)[C@@H](C3=CC(=O)OC3)CC[C@]12O [Digoxigenin] gave an IC50 of 0.038 ± 0.006 µM.
Cc1cccc(-c2[nH]c(CNc3ccccc3F)nc2-c2ccc3ncnn3c2)n1 [EW–7197] gave an IC50 of 0.051 ± 0.017 µM.
Compound CC(C)(C)c1ccc(CN(Cc2cccc(OCC(=O)O)c2)S(=O)(=O)c2cccnc2)cc1 [Evatanepag] has an IC50 of 0.026 ± 0.029 µM.
In the case of O=C(CC1NCCCC1O)Cn1cnc2cc(Br)c(Cl)cc2c1=O (stereo not drawn) [Halofuginone], the IC50 is reported as 0.027 ± 0.004 µM.
COC(=O)c1ccc2c(c1)NC(=O)/C2=C(\Nc1ccc(N(C)C(=O)CN2CCN(C)CC2)cc1)c1ccccc1 [Nintedanib] gave an IC50 of 0.5 ± 0.12 µM.
For CCCCC[C@H](O)/C=C/[C@H]1[C@H](O)CC(=O)[C@@H]1C/C=C\CCCC(=O)O [PGE2, prostaglandin E2], the IC50 was 0.0012 ± 0.0012 µM.

Same assay, conditions: NHLF in the absence of TGF–β1
For CCCCC[C@H](O)/C=C/[C@H]1[C@H](O)CC(=O)[C@@H]1CCCCCCC(=O)O [Alprostadil], the “effect on basal α–SMA expression” value was “no effect”.

Same assay, conditions: NHLF, 5 ng/mL TGF-β1
In the case of “TGF–β1: transforming growth factor–β1, stimulus of myofibroblast differentiation”, the “α-SMA / tubulin ratio” value is reported as 0.51 ± 0.06.

Same assay, conditions: NHLF, 5 ng/ml TGF–β1, lysed 48 h after TGF–β1, normalized to tubulin; mean ± SD; read-out: MS / MS α–SMA IC50
For O=C1CC[C@H](/C=C/[C@@H](O)Cc2ccccc2)N1CCCCCCc1nn[nH]n1 [Merck–19a], the IC50 was 0.108 ± 0.087 µM.

Same assay, conditions: NHLF, 48 hours, MS/MS (n = 8)
With “TGF–β1: transforming growth factor–β1, stimulus of myofibroblast differentiation” the “EC50 of α–SMA protein increase” value was 0.07 ± 0.01 ng/mL.

Same assay, conditions: NHLF, at 48 hours
In the case of “TGF–β1: transforming growth factor–β1, stimulus of myofibroblast differentiation”, the “increase of α–SMA protein” value is reported as “about 3 fold”.

What follows are compounds tested on α–SMA protein in TGF–β1–induced NHLF myofibroblasts (assay: MS/MS α–SMA, NHLF myofibroblast reversal assay). Conditions: Homo sapiens; NHLF pre–stimulated 24 h with 5 ng/ml TGF–β1; representative experiment, S7 Fig D; read-out: IC50, reversal of α–SMA (curve of a single experiment).
Type: cell-based, human
Description: as §1, §2, §3, §4
For Cc1cccc(-c2[nH]c(CNc3ccccc3F)nc2-c2ccc3ncnn3c2)n1 [EW–7197], the IC50 was 0.051 µM.
With O=C(CC1NCCCC1O)Cn1cnc2cc(Br)c(Cl)cc2c1=O (stereo not drawn) [Halofuginone] the IC50 was 0.04 µM.
With CCCCC[C@H](O)/C=C/[C@H]1[C@H](O)CC(=O)[C@@H]1C/C=C\CCCC(=O)O [PGE2, prostaglandin E2] the IC50 was 0.00082 µM.

Same assay, conditions: Homo sapiens; reversal assay: 24 h 5 ng/ml TGF–β1, washed, 72 h compound; normalized to tubulin; read-out: MS / MS α–SMA IC50
In the case of CCCCC[C@H](O)/C=C/[C@H]1[C@H](O)CC(=O)[C@@H]1CCCCCCC(=O)O [Alprostadil], the IC50 is reported as 0.001 µM.
Compound C[C@]12CC[C@H](O)C[C@H]1CC[C@@H]1[C@@H]2C[C@@H](O)[C@]2(C)[C@@H](C3=CC(=O)OC3)CC[C@]12O [Digoxigenin] has an IC50 of 0.048 µM.
Cc1cccc(-c2[nH]c(CNc3ccccc3F)nc2-c2ccc3ncnn3c2)n1 [EW–7197] showed an IC50 of 0.073 ± 0.031 µM.
CC(C)(C)c1ccc(CN(Cc2cccc(OCC(=O)O)c2)S(=O)(=O)c2cccnc2)cc1 [Evatanepag] gave an IC50 of 0.016 µM.
O=C(CC1NCCCC1O)Cn1cnc2cc(Br)c(Cl)cc2c1=O (stereo not drawn) [Halofuginone] gave an IC50 of 0.102 ± 0.087 µM.
COC(=O)c1ccc2c(c1)NC(=O)/C2=C(\Nc1ccc(N(C)C(=O)CN2CCN(C)CC2)cc1)c1ccccc1 [Nintedanib] was tested, and the IC50 was > 10 µM.
Work on CCCCC[C@H](O)/C=C/[C@H]1[C@H](O)CC(=O)[C@@H]1C/C=C\CCCC(=O)O [PGE2, prostaglandin E2] yielded an IC50 of 0.0008 µM.
